Organism: Rattus norvegicus
Test: Open TG-GATES - Regimen: Single
Format: toxicity, organism-based, Sprague-Dawley
Parameters: regimen Single, gender Male, age 6 weeks
Details: in vivo, po, 100 mg/kg, route gavage, dose level Low; for APTT / Bas / Eos / Fbg / Hb / Ht / Lym / MCH / MCHC / MCV / Mono / Neu / PT / Plat / RBC / Ret / WBC: tissue Blood; for KIDNEY_L / KIDNEY_R / KIDNEY_TOTAL: tissue Kidney; for LIVER: tissue Liver; for A/G / ALP / ALT / AST / BUN / CRE / Ca / Cl / DBIL / GLC / IP / K / LDH / Na / PL / RALB / TBIL / TC / TG / TP / gamma-GTP: tissue Plasma

SMILES: CC(=O)Nc1ccc2c(c1)Cc1ccccc1-2 [2-ACETYLAMINOFLUORENE]
- TERMINAL_BW (3 h): 222.2 g
- APTT (3 h): 19.4 s
- Bas (3 h): 0.8%
- Eos (3 h): 1%
- Fbg (3 h): 228.6 mg/dL
- Hb (3 h): 14.1 g/dL
- Ht (3 h): 40.7%
- Lym (3 h): 76.4%
- MCH (3 h): 21.6 pg
- MCHC (3 h): 34.7%
- MCV (3 h): 62.3 fL
- Mono (3 h): 2%
- Neu (3 h): 19.2%
- PT (3 h): 11.6 s
- Plat (3 h): 114.3 x10_4/uL
- RBC (3 h): 653.2 x10_4/ul
- Ret (3 h): 7%
- WBC (3 h): 73.8 x10_2/uL
- KIDNEY_L (3 h): 1 g
- KIDNEY_R (3 h): 1 g
- KIDNEY_TOTAL (3 h): 2 g
- LIVER (3 h): 10.4 g
- A/G (3 h): 1.8
- ALP (3 h): 1019.4 IU/L
- ALT (3 h): 37.6 IU/L
- AST (3 h): 77 IU/L
- BUN (3 h): 13.2 mg/dL
- CRE (3 h): 0.4 mg/dL
- Ca (3 h): 10.7 mg/dL
- Cl (3 h): 103.4 meq/L
- DBIL (3 h): 0.07 mg/dL
- GLC (3 h): 212.8 mg/dL
- IP (3 h): 10.8 mg/dL
- K (3 h): 4 meq/L
- LDH (3 h): 203.8 IU/L
- Na (3 h): 141.4 meq/L
- PL (3 h): 151 mg/dL
- RALB (3 h): 3.6 g/dL
- TBIL (3 h): 0.1 mg/dL
- TC (3 h): 92.6 mg/dL
- TG (3 h): 45.8 mg/dL
- TP (3 h): 5.6 g/dL
- gamma-GTP (3 h): 1 IU/L
- TERMINAL_BW (6 h): 219.9 g
- APTT (6 h): 20.9 s
- Bas (6 h): 0.4%
- Eos (6 h): 1%
- Fbg (6 h): 221.6 mg/dL
- Hb (6 h): 13.9 g/dL
- Ht (6 h): 40.1%
- Lym (6 h): 81.6%
- MCH (6 h): 21.3 pg
- MCHC (6 h): 34.6%
- MCV (6 h): 61.5 fL
- Mono (6 h): 2.4%
- Neu (6 h): 14.2%
- PT (6 h): 12.2 s
- Plat (6 h): 132.9 x10_4/uL
- RBC (6 h): 652 x10_4/ul
- Ret (6 h): 7%
- WBC (6 h): 82.3 x10_2/uL
- KIDNEY_L (6 h): 1 g
- KIDNEY_R (6 h): 1 g
- KIDNEY_TOTAL (6 h): 2 g
- LIVER (6 h): 9.9 g
- A/G (6 h): 1.6
- ALP (6 h): 792.8 IU/L
- ALT (6 h): 31.6 IU/L
- AST (6 h): 70.6 IU/L
- BUN (6 h): 10 mg/dL
- CRE (6 h): 0.4 mg/dL
- Ca (6 h): 10.5 mg/dL
- Cl (6 h): 101.8 meq/L
- DBIL (6 h): 0.064 mg/dL
- GLC (6 h): 195.6 mg/dL
- IP (6 h): 9.4 mg/dL
- K (6 h): 4.1 meq/L
- LDH (6 h): 169 IU/L
- Na (6 h): 140.4 meq/L
- PL (6 h): 135.6 mg/dL
- RALB (6 h): 3.4 g/dL
- TBIL (6 h): 0.1 mg/dL
- TC (6 h): 79.2 mg/dL
- TG (6 h): 45.2 mg/dL
- TP (6 h): 5.6 g/dL
- gamma-GTP (6 h): 1 IU/L
- TERMINAL_BW (9 h): 218.6 g
- APTT (9 h): 19 s
- Bas (9 h): 0.6%
- Eos (9 h): 0.8%
- Fbg (9 h): 227.6 mg/dL
- Hb (9 h): 14.1 g/dL
- Ht (9 h): 40.8%
- Lym (9 h): 72.8%
- MCH (9 h): 21.4 pg
- MCHC (9 h): 34.5%
- MCV (9 h): 62.2 fL
- Mono (9 h): 3%
- Neu (9 h): 22%
- PT (9 h): 12.9 s
- Plat (9 h): 124.3 x10_4/uL
- RBC (9 h): 655 x10_4/ul
- Ret (9 h): 6.7%
- WBC (9 h): 79.5 x10_2/uL
- KIDNEY_L (9 h): 0.9 g
- KIDNEY_R (9 h): 0.9 g
- KIDNEY_TOTAL (9 h): 1.9 g
- LIVER (9 h): 9.5 g
- A/G (9 h): 1.5
- ALP (9 h): 754.8 IU/L
- ALT (9 h): 31 IU/L
- AST (9 h): 67.2 IU/L
- BUN (9 h): 10.8 mg/dL
- CRE (9 h): 0.4 mg/dL
- Ca (9 h): 10.5 mg/dL
- Cl (9 h): 104.2 meq/L
- DBIL (9 h): 0.064 mg/dL
- GLC (9 h): 211.2 mg/dL
- IP (9 h): 9.1 mg/dL
- K (9 h): 3.8 meq/L
- LDH (9 h): 230 IU/L
- Na (9 h): 141.2 meq/L
- PL (9 h): 124.8 mg/dL
- RALB (9 h): 3.4 g/dL
- TBIL (9 h): 0.1 mg/dL
- TC (9 h): 65 mg/dL
- TG (9 h): 56.8 mg/dL
- TP (9 h): 5.7 g/dL
- gamma-GTP (9 h): 1 IU/L
- TERMINAL_BW (24 h): 221.4 g
- APTT (24 h): 21.7 s
- Bas (24 h): 0.2%
- Eos (24 h): 1%
- Fbg (24 h): 215.6 mg/dL
- Hb (24 h): 14.6 g/dL
- Ht (24 h): 42%
- Lym (24 h): 76.8%
- MCH (24 h): 22.2 pg
- MCHC (24 h): 34.7%
- MCV (24 h): 63.8 fL
- Mono (24 h): 5%
- Neu (24 h): 16.6%
- PT (24 h): 14.5 s
- Plat (24 h): 140.8 x10_4/uL
- RBC (24 h): 658.2 x10_4/ul
- Ret (24 h): 6.5%
- WBC (24 h): 91.5 x10_2/uL
- KIDNEY_L (24 h): 1 g
- KIDNEY_R (24 h): 1 g
- KIDNEY_TOTAL (24 h): 2.1 g
- LIVER (24 h): 11.2 g
- A/G (24 h): 1.8
- ALP (24 h): 1020 IU/L
- ALT (24 h): 37.8 IU/L
- AST (24 h): 74 IU/L
- BUN (24 h): 17.2 mg/dL
- CRE (24 h): 0.4 mg/dL
- Ca (24 h): 10.4 mg/dL
- Cl (24 h): 105.4 meq/L
- DBIL (24 h): 0.1 mg/dL
- GLC (24 h): 187.8 mg/dL
- IP (24 h): 8.4 mg/dL
- K (24 h): 4.6 meq/L
- LDH (24 h): 207.4 IU/L
- Na (24 h): 140.6 meq/L
- PL (24 h): 120.8 mg/dL
- RALB (24 h): 3.3 g/dL
- TBIL (24 h): 0.2 mg/dL
- TC (24 h): 52 mg/dL
- TG (24 h): 120.6 mg/dL
- TP (24 h): 5.1 g/dL
- gamma-GTP (24 h): 1.4 IU/L

Source: ChEMBL document CHEMBL3885861, “Open TG-GATES”
